Three molecules from patent publication US9944968B2, “Control of protein glycosylation by culture medium supplementation and cell culture process parameters” (Biogen MA Inc., priority 2013, dated 2018) can be followed below.

Like-named read-outs stand apart in the source and are kept apart here.

The test system of series [1] is DUXB11 cell lines. Type of series: cell-based, Chinese hamster. The conditions noted are these: for Cell viability (%): Chinese hamster, 3 days. As to the method:
FIG. 7A and FIG. 7B. Impact of Mycophenolic acid (MPA) on afucosylation in cell lines (FIG. 7A and FIG. 7B showing two different cell lines) derived from DUXB11. The cells were cultured in 3 L bioreactor respectively for 7 days following the platform process. On day 7, the cells were divided into several 1 L shake flasks with 200 mL working volume and then dosed with various amounts of MPA (0 μM, […], 10 μM, 30 μM). After dosing MPA, shake flask fed-batch is conducted until day-3 harvest. Filtered supernatant samples were analyzed for titer and N-glycan analysis for afucosylation level.
DUXB11 cell lines (cell line #1 and #2) were cultured in 3 L bioreactor respectively for 7 days following the platform process. On day 7, the cells were divided into several 1 L shake flasks with 200 mL working volume and then dosed with various amounts of MPA (0 μM, 1 μM, 10 μM, 30 μM). After dosing MPA, shake flask fed-batch is conducted until day-3 harvest. Filtered supernatant samples were analyzed for titer and N-glycan analysis for afucosylation level. […] However, the titer was decreased (side effect) (see Table 8 below and FIG. 7A and FIG. 7B). […] The impact on viability became much more significant in bioreactor process (see Example 9 below).

Series [2] relates to DUXB11 cell lines. The class given is cell-based, Chinese hamster. The conditions noted are these: for impact on afucosylation: 3 L bioreactor, harvest D13; for Afucosylation (%) / Titer: MPA supplementation Day 5, DUXB11. The protocol: FIG. 8. Impact of the timing of supplementation with Mycophenolic acid (MPA) on afucosylation of DUXB11 cell line in 3 L bioreactors (A, B, C, and D) with the same seed density following the platform process. When the viable cell density (VCD) reached its peak (Day 5 in the study), fixed 5 μM of MPA was added in bioreactor A. At the same time, MPA was added in bioreactor B based on the VCD value to make sure MPA per cell is the same as the platform process to eliminate the possible impact of different cell growth. The next day (one day past peak VCD day, D6 in this study), fixed 5 μM of MPA was added in bioreactor C and MPA was added in bioreactor D based on its D6 VCD value to make sure MPA per cell is the same as the platform process to eliminate the possible impact of different cell growth. All bioreactors were harvested on D13. The filtered supernatant samples were analyzed for titer and N-glycan analysis for afucosylation level.
DUXB11 cell lines were cultured in 3 L bioreactor respectively following the platform process. On day 6, various amounts of MPA were dosed (0 μM and 5 μM). After dosing MPA, bioreactors were kept running until they were harvested on day 13. Filtered supernatant samples were analyzed for titer and N-glycan analysis for afucosylation level.
The culture conditions are described in FIG. 8. […] In addition, afucosylation level was increased with peak VCD day MPA addition (fixed 5 μM MPA vs. VCD based MPA addition).
The effect of temperature shift and supplementation with MPA is provided in FIG. 12, FIG. 13, FIG. 14A, and FIG. 14B and Table 11 below.

Another series relates to BIIB603 cell line. The series can be described thus: BIIB603 shake flask fed-batch with MPA or acMPAG: afucosylation (N-glycan analysis). The conditions noted are these: BIIB603 shake flasks; MPA 20, 40 μM or acMPAG 20 μM dosed day 6; 4 more days at 31 °C; FIG. 18. Type of series: cell-based. As to the method: FIG. 18. Impact of Mycophenolic acid (MPA) and Mycophenolic acid acyl glucuronide (acMPAG) on afucosylation in BIIB603 cell line. The cells were scaled up to 5 L BR for fed-batch production process. On day 5, temperature was shifted from 37° C. to 31° C. On day 6, cell culture was drained from the bioreactor and divided into several 500 mL shake flasks with 100 mL working volume and then dosed with various amounts of MPA (0 μM, 20 μM, 40 μM) or acMPAG (20 μM) in duplicates. After dosing, the shake flasks were cultured another 4 days at 31° C., 5% CO2 and 150 rpm with fed-batch process and then harvested. The supernatant was sent for PQ assay (N-glycan analysis) for afucosylation level.
BIIB603 cell line was scaled up to 5 L BR for fed-batch production process. On day 5, temperature was shifted from 37° C. to 31° C. On day 6, cell culture was drained from the bioreactor and divided into several 500 mL shake flasks with 100 mL working volume and then dosed with various amounts of MPA (0 μM, 20 μM, 40 μM) or acMPAG (20 μM) in duplicates. After dosing, the shake flasks were cultured another 4 days at 31° C., 5% CO2 and 150 rpm with fed-batch process and then harvested. The supernatant was sent for PQ assay (N-glycan analysis) for afucosylation level.

The next series relates to FcgRIII a. The series can be described thus: FcgRIIIa binding of product after insulin and MPA supplement on DUXB11.
Another series deals with DUXB11 cell line. The series can be described thus: DUXB11 3 L bioreactor with insulin additions and fixed MPA: afucosylation, glycosylation map, titer. The conditions noted are these: for Afucosyl / G0 / G0F / G1 + G1′ / G1F + G1F′ / G2 / G2F / M3F / M6 / MS: with MPA, DUXB11; for Afucosylation (%) / Titer: fixed 5 μM MPA, DUXB11 3 L bioreactor. More on the design: M3F / Afucosyl / G0 / G0F / MS / G1 + G1′ / G1F + G1F′ / M6 / G2 / G2F: unit not given here. The class given is cell-based, Chinese hamster. The protocol:
FIG. 11. […] Fixed 5 μM of MPA was added on Day 9 in all bioreactors and harvested on the same day. Filtered supernatant samples were analyzed for titer and N-glycan analysis for afucosylation level.
The culture conditions are described in FIG. 11.

[3] abbreviates: 1 μM MPA dosed day 7, DUXB11 shake flask, harvest 3 days after dosing.
The mark [4] stands for this setting: 10 μM MPA dosed day 7, DUXB11 shake flask, harvest 3 days after dosing.
[5] abbreviates: 30 μM MPA dosed day 7, DUXB11 shake flask, harvest 3 days after dosing.
[6] abbreviates: increasing MPA dosing concentration (1, 10, 30 μM), shake flask.

Take `COc1c(C)c2c(c(O)c1C/C=C(\C)CCC(=O)O)C(=O)OC2` [MPA, mycophenolic acid]: the impact on viability result in the series with DUXB11 cell lines [1] is on record as “not significant”. The “Afucosylation (%)” value is given as 3.85% in the series on DUXB11 cell lines [1] (setting [3]); 4.9% in the series on DUXB11 cell lines [1] (setting [4]); 4.4% in the series on DUXB11 cell lines [1] (setting [5]); 11.9% with DUXB11 cell lines [2] (temperature 35 to 30 °C); 10.7% in the series with DUXB11 cell lines [2] (temperature 35 to 33 °C). The “Titer” value with DUXB11 cell lines [1] (setting [3]) is 0.136 g/L; in the series on DUXB11 cell lines [1] (setting [4]) it was 0.106 g/L; in the series with DUXB11 cell lines [1] (setting [5]), 0.105 g/L; with DUXB11 cell lines [1] (setting [6]) it was “decreased”; in the series on DUXB11 cell lines [2] (temperature 35 to 30 °C), 1.5 g/L; in the series on DUXB11 cell lines [2] (temperature 35 to 33 °C) it was 1.8 g/L. The entries for the “Cell viability (%)” value in the series with DUXB11 cell lines [1] (1 μM), in the series on DUXB11 cell lines [1] (10 μM) and in the series with DUXB11 cell lines [1] (30 μM) were 62%, 61% and 62%, respectively. Moreover, the afucosylation level result was “increase” in the series on DUXB11 cell lines [1] (setting [6]) and “increase in the afucosylation level” with BIIB603 cell line. For the same molecule, the impact on afucosylation entry with DUXB11 cell lines [2] (MPA added on a different day than peak VCD (one day past, D6)) is “non-significant impact”; in the series on DUXB11 cell lines [2] (MPA added on the day of peak VCD (Day 5), fixed 5 μM or VCD based), “significant impact”.
For insulin, the FcgRIII a binding with FcgRIII a (2.5 mg/L ins in feed 1, with MPA) is listed as 60. In addition, the FcgRIII a binding in the series on FcgRIII a (10 mg/L ins in feed 1, with MPA) stood at 71. The same molecule had a FcgRIII a binding with FcgRIII a (30 mg/L ins in feed 1, with MPA) of 100. In the series with FcgRIII a (60 mg/L ins in feed 1, with MPA), this molecule returned a FcgRIII a binding of 100. Besides, in the series with DUXB11 cell line (2.5 mg/L ins in feed 1), the Afucosyl is reported as 4.9, the G0 came out at 3.9, the G0F came out at 68.1 and the “G1 + G1′” value is given as 0.9. For the same molecule, in the series on DUXB11 cell line (2.5 mg/L ins in feed 1), the “G1F + G1F′” value worked out at 20.2, the G2 is 0.0, the G2F is given as 1.8 and the M3F was found to be 1.0. In the series on DUXB11 cell line (2.5 mg/L ins in feed 1), the M6 turned out to be 0.90 and the MS worked out at 2.2. Besides, in the series on DUXB11 cell line (10 mg/L ins in feed 1), the Afucosyl turned out to be 6.2, the G0 is given as 5.1, the G0F was 64.9 and the “G1 + G1′” value came to 1.1. In the series on DUXB11 cell line (10 mg/L ins in feed 1), the “G1F + G1F′” value turned out to be 21.7, the G2 stood at 0.0, the G2F was 2.3 and the M3F stood at 0.9. In the series with DUXB11 cell line (10 mg/L ins in feed 1), the M6 was 0.9 and the MS worked out at 2.2. Also, in the series on DUXB11 cell line (30 mg/L ins in feed 1), the G0 came out at 6.7, the G0F was 62.5, the “G1 + G1′” value is 1.3 and the “G1F + G1F′” value was found to be 21.1. Moreover, in the series with DUXB11 cell line (30 mg/L ins in feed 1), the G2 is given as 0.0, the G2F was found to be 2.3, the M3F worked out at 0.9 and the M6 was found to be 1.1. The MS with DUXB11 cell line (30 mg/L ins in feed 1) was 2.4. In the series on DUXB11 cell line (60 mg/L ins in feed 1), the G0 was 6.4, the G0F is 61.4, the “G1 + G1′” value was determined as 1.4 and the “G1F + G1F′” value came to 22.9. In addition, in the series on DUXB11 cell line (60 mg/L ins in feed 1), the G2 turned out to be 0.0, the G2F turned out to be 2.6, the M3F stood at 0.8 and the M6 is 0.9. For the same molecule, in the series on DUXB11 cell line (60 mg/L ins in feed 1), the MS is on record as 2.5. In addition, the afucosylation entry with DUXB11 cell line (increasing insulin concentration with same MPA supplementation, fed-batch culture) is reported as “increased afucosylation”. Besides, in the series on DUXB11 cell line (total insulin added 11 mg/L), the “Afucosylation (%)” value was found to be 4.9% and the “Titer” value is 2.3 g/L. Also, in the series with DUXB11 cell line (total insulin added 13 mg/L), the “Afucosylation (%)” value is given as 6.2% and the “Titer” value came to 2.6 g/L.
In the case of `COc1c(C)c2c(c(O)c1C/C=C(\C)CCC(=O)O[C@@H]1O[C@H](C(=O)O)[C@@H](O)[C@H](O)[C@H]1O)C(=O)OC2` [acMPAG, mycophenolic acid acyl glucuronide], the afucosylation level result with BIIB603 cell line was “increased the afucosylation level to similar extent”.
